For 14 molecules, IC50 and A2 peptide results are on record in US20040037843A1, “Inducing cellular immune responses to prostate cancer antigens using peptide and nucleic acid compositions” (priority 2003, published 2004).

In one experiment the target is HLA-A*0206 (Homo sapiens, UniProt P04439, D140Y/D185E/D98H/E176V/E277Q/F33Y/G131W/G231S/I119V/I121R/I166T/I218V/L300P/L318F/N151K/N90K/P208A/P217A/Q86G/Q94H/R138H/R169H/T345S). The experiment in a line: HLA class I binding assay, purified HLA, inhibition of 125I-labelled probe peptide.
A further experiment concerns the target HLA-A*6802 (Homo sapiens, UniProt P04439, A269V/D140Y/D185E/E176V/E277Q/E87N/F33Y/G231S/I121R/I166T/I218V/L180W/L300P/L318F/N151K/P208A/P217A/Q86R/R138H/R169H/S129P/T345S/V36M). Described as above.
The target in a further experiment is HLA-A*0203 (Homo sapiens, UniProt P04439, A173T/D140Y/D185E/D98H/E277Q/G131W/G231S/I119V/I121R/I166T/I218V/L180W/L300P/L318F/N151K/N90K/P208A/P217A/Q86G/Q94H/R138H/R169H/T345S). The description is as above.
For another experiment, the target named is HLA-A*0201 (Homo sapiens, UniProt P04439, D140Y/D185E/D98H/E176V/E277Q/G131W/G231S/I119V/I121R/I166T/I218V/L300P/L318F/N151K/N90K/P208A/P217A/Q86G/Q94H/R138H/R169H/T345S). The experiment is described as above. The settings on record: A*[…], A2 supermotif cross-reactive binding data.
In experiment [1] the test system is .221A2.1 peptide-loaded target cells and cells expressing endogenous antigen. The experiment in a line: Primary in vitro CTL induction with peptide-pulsed DC, CTL lytic activity by 51Cr release. It counts as cell-based, human. To be noted: immunogenicity, CTL recognition of the peptide, positive/tested. Here is the method:
Testing was performed using the following methodology:
Cells that express an antigen of interest, or transfectants comprising the gene encoding the antigen of interest, can be used as target cells to test the ability of peptide-specific CTLs to recognize endogenous antigen.
The monocytes are purified by plating 10×10^6 PBMC/well in a 6-well plate. After 2 hours at 37° C., the non-adherent cells are removed by gently shaking the plates and aspirating the supernatants. The wells are washed a total of three times with 3 ml RPMI to remove most of the non-adherent and loosely adherent cells. Three ml of complete medium containing 50 ng/ml of GM-CSF and 1,000 U/ml of IL-4 are then added to each well. TNFα is added to the DCs on day 6 at 75 ng/ml and the cells are used for CTL induction cultures on day 7.
Induction of CTL with DC and Peptide: CD8+ T-cells are isolated by positive selection with Dynal imnmunomagnetic beads (Dynabeads® M-450) and the detacha-bead® reagent. Typically about 200-250×10^6 PBMC are processed to obtain 24×10^6 CD8^+T-cells (enough for a 48-well plate culture). Briefly, the PBMCs are thawed in RPMI with 30 μg/ml DNAse, washed once with PBS containing 1% human AB serum and resuspended in PBS/1% AB serum at a concentration of 20×10^6 cells/ml. The magnetic beads are washed 3 times with PBS/AB serum, added to the cells (140 μl beads/20×10^6 cells) and incubated for 1 hour at 4° C. with continuous mixing. The beads and cells are washed 4× with PBS/AB serum to remove the nonadherent cells and resuspended at 100×10^6 cells/ml (based on the original cell number) in PBS/AB serum containing 100 μl/ml detacha-bead® reagent and 30 μg/ml DNAse. The mixture is incubated for 1 hour at room temperature with continuous mixing. The beads are washed again with PBS/AB/DNAse to collect the CD8+ T-cells. The DC are collected and centrifuged at 1300 rpm for 5-7 minutes, washed once with PBS with 1% BSA, counted and pulsed with 40 μg/ml of peptide at a cell concentration of 1-2×10^6/ml in the presence of 3 μg/ml β2-microglobulin for 4 hours at 20° C. The DC are then irradiated (4,200 rads), washed 1 time with medium and counted again.
Setting up induction cultures: 0.25 ml cytokine-generated DC (@1×10^5 cells/ml) are co-cultured with 0.25 ml of CD8+ T-cells (@2×10^6 cell/ml) in each well of a 48-well plate in the presence of 10 ng/ml of IL-7. Recombinant human IL10 is added the next day at a final concentration of 10 ng/ml and rhuman IL2 is added 48 hours later at 10 IU/mL.
Restimulation of the induction cultures with peptide-pulsed adherent cells: Seven and fourteen days after the primary induction the cells are restimulated with peptide-pulsed adherent cells. The PBMCS are thawed and washed twice with RPMI and DNAse. The cells are resuspended at 5×10^6 cells/ml and irradiated at ˜4200 rads. The PBMCs are plated at 2×10^6 in 0.5 ml complete medium per well and incubated for 2 hours at 37° C. The plates are washed twice with RPMI by tapping the plate gently to remove the nonadherent cells and the adherent cells pulsed with 10 μg/ml of peptide in the presence of 3 μg/ml β2 microglobulin in 0.25 ml RPMI/5% AB per well for 2 hours at 37° C. Peptide solution from each well is aspirated and the wells are washed once with RPMI. Most of the media is aspirated from the induction cultures (CD8+ cells) and brought to 0.5 ml with fresh media. The cells are then transferred to the wells containing the peptide-pulsed adherent cells. Twenty four hours later rhuman IL10 is added at a final concentration of 10 ng/ml and rhuman IL2 is added the next day and again 2-3 days later at 50 IU/ml (Tsai et al., Critical Reviews in Immunology 18(1-2):65-75, 1998). Seven days later the cultures are assayed for CTL activity in a ^51Cr release assay. In some experiments the cultures are assayed for peptide-specific recognition in the in situ IFNγ ELISA at the time of the second restimulation followed by assay of endogenous recognition 7 days later. […]

[2] abbreviates: A*[…], A2 supermotif cross-reactive binding data.
Setting [3] is: A2 supermotif cross-reactive binding data, read-out: A*6802 nM.

Where two headings read alike, the source gives them in different places. Bounds are passed on as bounds.

As to `CC(C)C[C@H](NC(=O)[C@H](CC(C)C)NC(=O)[C@@H](N)CC(C)C)C(=O)N[C@@H](C)C(=O)N[C@@H](CCCNC(=N)N)C(=O)N[C@@H](C)C(=O)N[C@@H](C)C(=O)N[C@@H](CO)C(=O)N[C@H](C(=O)O)C(C)C` [Peptide 60.0201], the IC50 at HLA-A*0206 (setting [2]) was 95 nM; at HLA-A*6802 (setting [3]), more than 10000 nM; on HLA-A*0203 (setting [2]), 6.7 nM.

In the case of `CC(C)C[C@H](NC(=O)[C@H](CO)NC(=O)[C@@H](NC(=O)[C@H](CS)NC(=O)[C@H](CCC(N)=O)NC(=O)[C@H](CC(C)C)NC(=O)[C@@H](N)CO)C(C)C)C(=O)N[C@@H](Cc1c[nH]cn1)C(=O)N[C@H](C(=O)O)C(C)C` [Peptide 1418.19], the IC50 at HLA-A*0201 was 56 nM; at HLA-A*0206 (setting [2]) it was 4110 nM; at HLA-A*0203 (setting [2]) it was 48 nM.

`CC(C)C[C@H](NC(=O)[C@H](CC(=O)O)NC(=O)CNC(=O)[C@H](CCC(=O)O)NC(=O)[C@@H]1CCCN1C(=O)[C@@H](NC(=O)CN)[C@@H](C)O)C(=O)N[C@H](C(=O)N[C@@H](Cc1ccc(O)cc1)C(=O)N[C@H](C(=O)O)C(C)C)C(C)C` [Peptide 1418.29]: the IC50 at HLA-A*0201 was 313 nM; on HLA-A*0206 (setting [2]) it was 40 nM; on HLA-A*6802 (setting [3]), 571 nM; on HLA-A*0203 (setting [2]) it was 53 nM.

As to `CC[C@H](C)[C@H](N)C(=O)N[C@H](C(=O)N[C@@H](CC(C)C)C(=O)N[C@@H](CO)C(=O)N[C@H](C(=O)NCC(=O)N[C@@H](CS)C(=O)N[C@H](C(=O)NCC(=O)N[C@@H](C)C(=O)N[C@H](C(=O)O)C(C)C)[C@@H](C)O)C(C)C)[C@@H](C)O` [Peptide 1418.59], the IC50 at HLA-A*0201 came out at 294 nM; on HLA-A*0206 (setting [2]), 206 nM; at HLA-A*0203 (setting [2]), 40 nM.

On to `CSCC[C@H](NC(=O)[C@H](CCC(N)=O)NC(=O)[C@H](CC(C)C)NC(=O)CNC(=O)[C@H](CO)NC(=O)[C@@H](NC(=O)[C@@H](N)[C@@H](C)O)C(C)C)C(=O)N[C@@H](C)C(=O)N[C@H](C(=O)O)C(C)C` [Peptide 60.0213], for which the IC50 on HLA-A*0201 turned out to be 294 nM; on HLA-A*0206 (setting [2]), 195 nM; on HLA-A*6802 (setting [3]), 5.7 nM; at HLA-A*0203 (setting [2]), 122 nM.

Turning to `CC(C)C[C@H](NC(=O)[C@H](CCC(=O)O)NC(=O)[C@H](CCCCN)NC(=O)[C@H](C)NC(=O)[C@H](CC(C)C)NC(=O)[C@@H](N)C(C)C)C(=O)N[C@@H](CCCCN)C(=O)N[C@@H](Cc1ccccc1)C(=O)N[C@H](C(=O)N[C@H](C(=O)O)C(C)C)C(C)C` [Peptide 63.0034], the IC50 at HLA-A*0201 was determined as 31 nM; at HLA-A*0206 (setting [2]) it was 86 nM; on HLA-A*6802 (setting [3]), 2290 nM; at HLA-A*0203 (setting [2]) it was 189 nM.

As for `CSCC[C@H](NC(=O)[C@H](CC(=O)O)NC(=O)[C@H](CC(N)=O)NC(=O)[C@H](CO)NC(=O)[C@H](CC(C)C)NC(=O)[C@H](CC(C)C)NC(=O)[C@@H](N)Cc1c[nH]cn1)C(=O)N[C@@H](CS)C(=O)N[C@@H](C)C(=O)N[C@@H](CCCNC(=N)N)C(=O)N[C@@H](C)C(=O)O` [Peptide 1419.15], the IC50 is 417 nM on HLA-A*0201, 374 nM at HLA-A*0206 (setting [2]), more than 10000 nM on HLA-A*6802 (setting [3]) and 250 nM on HLA-A*0203 (setting [2]).

With `CC(C)[C@H](NC(=O)[C@@H]1CCCN1C(=O)[C@@H](NC(=O)[C@H](C)NC(=O)CNC(=O)[C@@H](NC(=O)[C@H](CS)NC(=O)CNC(=O)[C@@H](NC(=O)[C@@H](N)CO)C(C)C)[C@@H](C)O)C(C)C)C(=O)O` [Peptide 1418.35], the IC50 at HLA-A*0201 is 104 nM; at HLA-A*0206 (setting [2]), 552 nM; at HLA-A*6802 (setting [3]), 216 nM; at HLA-A*0203 (setting [2]) it was 154 nM.

Consider `CSCC[C@H](NC(=O)[C@H](C)NC(=O)[C@H](CO)NC(=O)[C@H](CCSC)NC(=O)[C@H](CC(C)C)NC(=O)[C@@H](N)[C@@H](C)O)C(=O)N[C@H](C(=O)N[C@@H](CC(N)=O)C(=O)N[C@@H](CC(C)C)C(=O)N[C@@H](C)C(=O)O)[C@@H](C)O` [Peptide 20.0312], for which the IC50 was determined as 3700 nM at HLA-A*0206, 6670 nM at HLA-A*6802 and 37 nM on HLA-A*0203.

Consider `CSCC[C@H](N)C(=O)N[C@@H](CC(C)C)C(=O)N[C@@H](CC(C)C)C(=O)N[C@@H](CCCNC(=N)N)C(=O)N[C@@H](CC(C)C)C(=O)N[C@@H](CO)C(=O)N[C@@H](CCC(=O)O)C(=O)N1CCC[C@H]1C(=O)N[C@@H](C)C(=O)N[C@@H](CCC(=O)O)C(=O)N[C@H](C(=O)O)C(C)C` [Peptide 1389.12], for which the IC50 came to 294 nM on HLA-A*0201, 4440 nM on HLA-A*6802 (setting [3]) and 115 nM at HLA-A*0203 (setting [2]).

On to `CSCC[C@H](NC(=O)[C@@H](N)Cc1ccccc1)C(=O)N[C@@H](CC(C)C)C(=O)N[C@@H](CS)C(=O)N[C@@H](C)C(=O)NCC(=O)N[C@@H](CC(C)C)C(=O)N[C@@H](Cc1c[nH]c2ccccc12)C(=O)N[C@H](C(=O)O)C(C)C` [Peptide 1418.22], for which the IC50 is 51 nM on HLA-A*0206 (setting [2]), more than 10000 nM at HLA-A*6802 (setting [3]) and 91 nM on HLA-A*0203 (setting [2]).

Consider `CC(C)C[C@H](NC(=O)[C@H](Cc1ccccc1)NC(=O)[C@H](CC(C)C)NC(=O)[C@H](Cc1ccccc1)NC(=O)CNC(=O)[C@H](CC(C)C)NC(=O)[C@H](CO)NC(=O)[C@H](CC(C)C)NC(=O)[C@H](CO)NC(=O)[C@H](C)NC(=O)[C@H](C)N)C(=O)O` [Peptide 63.0137], for which the IC50 at HLA-A*0201 is 227 nM; on HLA-A*0206 (setting [2]), 95 nM; on HLA-A*6802 (setting [3]), more than 10000 nM; on HLA-A*0203 (setting [2]), 53 nM.

Consider `CC(C)C[C@H](NC(=O)[C@H](CC(C)C)NC(=O)CNC(=O)[C@H](CC(N)=O)NC(=O)[C@H](Cc1ccc(O)cc1)NC(=O)[C@@H](NC(=O)[C@H](CC(=O)O)NC(=O)[C@H](CC(C)C)NC(=O)[C@H](C)N)C(C)C)C(=O)O` [Peptide 1177.02], for which the IC50 at HLA-A*0201 was 73 nM; at HLA-A*6802 (setting [3]), more than 10000 nM; on HLA-A*0203, 256 nM.

On to `CSCC[C@H](NC(=O)[C@H](C)NC(=O)[C@H](CO)NC(=O)[C@H](CCSC)NC(=O)[C@H](CC(C)C)NC(=O)[C@@H](N)[C@@H](C)O)C(=O)N[C@H](C(=O)N[C@@H](CC(N)=O)C(=O)N[C@@H](CC(C)C)C(=O)O)[C@@H](C)O` [Peptide 1177.01], for which the A2 peptide in experiment [1] is reported as 2/2.
